Assay results published in patent publication US20080063628A1, “METHODS TO PROMOTE CELL DIFFERENTIATION” (priority 2006, published 2008).

Assays:
Assay in all cases: Two sequential high dose trichostatin A treatments (24 h each), gene expression by RT-PCR (Example 8)
Assay type in all cases: cell-based, human
[1] = test system: late passage (P11) pancreatic-derived stromal cell line; conditions: for HNF-3 beta RT-PCR detection cycle / Pdx-1 RT-PCR detection cycle / glucagon RT-PCR detection cycle: 5.0 μM
Procedure: (§1) Several cell lines obtained from different amniotic fluid specimens (see Example 14) and pancreas donors (see Example 13) were tested with similar results. Two lines at similar passage number but derived from different amniotic fluid specimens are shown in Table VIII-A and Table VIII-B for this example. One of these cell lines was also used in examples 2 and 4 above. In addition, this example also contains comparison data in Table VIII-C and Table VIII-D for a single pancreatic-derived stromal line grown to early and late passage number.
(§2) Amniotic fluid derived cells or pancreatic-derived stromal cells were seeded into 24-well tissue culture plates at a density of 5000/cm^2 and cultured in AMNIOMAX (Invitrogen) or DMEM with 10% FBS respectively under standard cell culture conditions until confluent. After the cells reached confluency, amniotic fluid derived cells were treated at time 0 hours with a dose of 1.25 μM trichostatin A, and pancreatic-derived stromal cells were treated with a dose of 5.0 μM trichostatin A solubilized in DMSO and medium. At time 24 hours, cell cultures underwent a complete medium change to remove all traces of trichostatin A. At time 96 hours, cell cultures were re-fed with fresh medium and received a second dose of trichostatin A at the same concentration as used previously. At time 120 hours, cell cultures again underwent a complete medium change and were cultured for an additional 24 hours or […] total incubation time.
(§3) Samples were taken daily for RT-PCR at the times indicated in Table VIII-A to D. The culture media was removed, and samples were rinsed in PBS then collected in RLT with β-mercaptoethanol (Qiagen). RNA was purified using the RNeasy Mini Kit (Qiagen) and RNA quantity and quality were determined using a spectrophotometer. cDNA was made using the iScript cDNA synthesis kit (BioRad).
(§4) Samples of 20 ng cDNA were used in each reaction to determine the expression levels of the following genes in amniotic fluid-derived cells: Gata1, HNF-3 beta, Pdx-1, insulin, and Sox17. Similarly, samples of 20 ng cDNA were used in each reaction to determine the expression level of the following genes in pancreatic-derived cells: glucagon, HNF-3 beta, insulin and Pdx-1. Real-Time PCR was performed on the Applied Biosystems 7500, and data was analyzed using the accompanying software according to the methods described in Example 15.
(§5) Real-time PCR amplifcation and quantitative analysis. Unless otherwise stated, all reagents were purchased from Applied Biosystems. Real-time PCR reactions were performed using the ABI PRISM™ 7500 Sequence Detection System. TAQMAN™ FAST UNIVERSAL PCR MASTER MIX™ (ABI, CA) was used with 20 ng of reverse transcribed RNA in a total reaction volume of 20 μl. Each cDNA sample was run in duplicate to allow correction of pipetting errors. Primers and FAM-labeled TAQMAN™ probes were used at concentrations of 200 nM. The level of expression for each target gene was normalized using the pre-developed Applied Biosystem's human glyceraldehyde-3-phosphate dehydrogenase (GAPDH) endogenous control kit. Primers and probes were designed using either ABI PRISM PRIMER EXPRESS™ software or a pre-developed ABI gene analysis kit. For each gene, either one of the primers or the probe were designed to be exon-boundary spanning. This eliminated the possibility of the primers/probe binding to any genomic DNA present. The primer and probe sets are listed as follows: Pdx-1 (Hs00426216), Insulin (Hs00355773), glucagon (Hs00174967), and FoxA2 (HNF 3-beta) (Hs00232764). The remaining primers were designed using the PRIMERS program (ABI, CA). After an initial 95° C. incubation for 20 sec, samples were cycled 40 times in two stages: a denaturation step at 95° C. for 3 sec, followed by an annealing/extension step at 60° C. for 30 sec. […]

[2] = test system: early passage (P5) pancreatic-derived stromal cell line; conditions: for HNF-3 beta gene expression / Insulin gene expression / Pdx-1 gene expression / glucagon gene expression: 5 μM 0-24 h + 96-120 h
Procedure: as §1, §2, §3, §4, §5

[3] = test system: second amniotic fluid-derived cell line; conditions: for Gata1 gene expression / HNF-3 beta gene expression / Insulin gene expression / Pdx-1 gene expression / sox17 gene expression: 1.25 μM 0-24 h + 96-120 h
Procedure: as §1, §2, §3, §4, §5

[4] = 5 μM 0-24 h + 96-120 h, 120 hrs
[5] = 5.0 μM, following first treatment
[6] = 1.25 μM, following the second treatment

Structure (SMILES): CC(/C=C/C(=O)NO)=C\[C@@H](C)C(=O)c1ccc(N(C)C)cc1 [trichostatin A]
- Pdx-1 gene expression ([1]; 5 μM 0-24 h + 96-120 h, 24 hrs): + (detectable at less than 35 cycles with SE greater than 0.9)
- Insulin gene expression ([1]; 5 μM 0-24 h + 96-120 h, 48 hrs): + (detectable at less than 35 cycles with SE greater than 0.9)
- glucagon gene expression ([1]; 5 μM 0-24 h + 96-120 h, 48 hrs): + (detectable at less than 35 cycles with SE greater than 0.9)
- glucagon gene expression ([1]; 5 μM 0-24 h + 96-120 h, 72 hrs): + (detectable at less than 35 cycles with SE greater than 0.9)
- glucagon gene expression ([1]; 5 μM 0-24 h + 96-120 h, 96 hrs): + (detectable at less than 35 cycles with SE greater than 0.9)
- HNF-3 beta gene expression [1, 4]: + (detectable at less than 35 cycles with SE greater than 0.9)
- glucagon gene expression [1, 4]: + (detectable at less than 35 cycles with SE greater than 0.9)
- glucagon gene expression ([1]; 5 μM 0-24 h + 96-120 h, 144 hrs): + (detectable at less than 35 cycles with SE greater than 0.9)
- HNF-3 beta RT-PCR detection cycle ([1]; after the second treatment): 36 cycles
- HNF-3 beta RT-PCR detection cycle ([1]; following first treatment): 32 cycles
- Pdx-1 RT-PCR detection cycle ([1]; following first treatment): 31 cycles
- glucagon RT-PCR detection cycle ([1]; following first treatment): 33 cycles
- glucagon RT-PCR detection cycle ([1]; following the medium change): 38 cycles
- Pdx-1 RT-PCR detection cycle ([1]; following the second addition): 34 cycles
- HNF-3 beta gene expression ([2]; 24 hrs): +++ (detectable at less than 35 cycles by RT-PCR with SE less than 0.9)
- Insulin gene expression ([2]; 24 hrs): nd (not detectable at >40 cycles by RT-PCR)
- Pdx-1 gene expression ([2]; 24 hrs): ++ (detectable at less than 35 cycles by RT-PCR with SE greater than 0.9)
- glucagon gene expression ([2]; 24 hrs): +++ (detectable at less than 35 cycles by RT-PCR with SE less than 0.9)
- HNF-3 beta gene expression ([2]; 48 hrs): nd (not detectable at >40 cycles by RT-PCR)
- Insulin gene expression ([2]; 48 hrs): nd (not detectable at >40 cycles by RT-PCR)
- Pdx-1 gene expression ([2]; 48 hrs): nd (not detectable at >40 cycles by RT-PCR)
- glucagon gene expression ([2]; 48 hrs): + (detectable between 35 and 40 cycles by RT-PCR)
- HNF-3 beta gene expression ([2]; 72 hrs): nd (not detectable at >40 cycles by RT-PCR)
- Insulin gene expression ([2]; 72 hrs): nd (not detectable at >40 cycles by RT-PCR)
- Pdx-1 gene expression ([2]; 72 hrs): nd (not detectable at >40 cycles by RT-PCR)
- glucagon gene expression ([2]; 72 hrs): + (detectable between 35 and 40 cycles by RT-PCR)
- HNF-3 beta gene expression ([2]; 96 hrs): nd (not detectable at >40 cycles by RT-PCR)
- Insulin gene expression ([2]; 96 hrs): nd (not detectable at >40 cycles by RT-PCR)
- Pdx-1 gene expression ([2]; 96 hrs): nd (not detectable at >40 cycles by RT-PCR)
- glucagon gene expression ([2]; 96 hrs): nd (not detectable at >40 cycles by RT-PCR)
- HNF-3 beta gene expression ([2]; 120 hrs): + (detectable between 35 and 40 cycles by RT-PCR)
- Insulin gene expression ([2]; 120 hrs): nd (not detectable at >40 cycles by RT-PCR)
- Pdx-1 gene expression ([2]; 120 hrs): +++ (detectable at less than 35 cycles by RT-PCR with SE less than 0.9)
- glucagon gene expression ([2]; 120 hrs): nd (not detectable at >40 cycles by RT-PCR)
- HNF-3 beta gene expression ([2]; 144 hrs): nd (not detectable at >40 cycles by RT-PCR)
- Insulin gene expression ([2]; 144 hrs): nd (not detectable at >40 cycles by RT-PCR)
- Pdx-1 gene expression ([2]; 144 hrs): nd (not detectable at >40 cycles by RT-PCR)
- glucagon gene expression ([2]; 144 hrs): + (detectable between 35 and 40 cycles by RT-PCR)
- Pdx-1 RT-PCR detection cycle ([2]; 5.0 μM, after the second treatment): 32 cycles
- glucagon RT-PCR detection cycle ([2]; 5.0 μM, end of the experiment): 38 cycles
- HNF-3 beta RT-PCR detection cycle ([2]; 5.0 μM, following a second treatment): 36 cycles
- HNF-3 beta RT-PCR detection cycle [2, 5]: 34 cycles
- glucagon RT-PCR detection cycle [2, 5]: 35 cycles
- Gata1 gene expression ([3]; 24 hrs): + (detectable between 35 and 40 cycles by RT-PCR)
- HNF-3 beta gene expression ([3]; 24 hrs): +++ (detectable at less than 35 cycles by RT-PCR with SE less than 0.9)
- Insulin gene expression ([3]; 24 hrs): nd (not detectable at >40 cycles by RT-PCR)
- Pdx-1 gene expression ([3]; 24 hrs): +++ (detectable at less than 35 cycles by RT-PCR with SE less than 0.9)
- sox17 gene expression ([3]; 24 hrs): +++ (detectable at less than 35 cycles by RT-PCR with SE less than 0.9)
- Gata1 gene expression ([3]; 48 hrs): nd (not detectable at >40 cycles by RT-PCR)
- HNF-3 beta gene expression ([3]; 48 hrs): +++ (detectable at less than 35 cycles by RT-PCR with SE less than 0.9)
- Insulin gene expression ([3]; 48 hrs): nd (not detectable at >40 cycles by RT-PCR)
- Pdx-1 gene expression ([3]; 48 hrs): nd (not detectable at >40 cycles by RT-PCR)
- sox17 gene expression ([3]; 48 hrs): +++ (detectable at less than 35 cycles by RT-PCR with SE less than 0.9)
- Gata1 gene expression ([3]; 72 hrs): nd (not detectable at >40 cycles by RT-PCR)
- HNF-3 beta gene expression ([3]; 72 hrs): +++ (detectable at less than 35 cycles by RT-PCR with SE less than 0.9)
- Insulin gene expression ([3]; 72 hrs): + (detectable between 35 and 40 cycles by RT-PCR)
- Pdx-1 gene expression ([3]; 72 hrs): nd (not detectable at >40 cycles by RT-PCR)
- sox17 gene expression ([3]; 72 hrs): +++ (detectable at less than 35 cycles by RT-PCR with SE less than 0.9)
- Gata1 gene expression ([3]; 96 hrs): nd (not detectable at >40 cycles by RT-PCR)
- HNF-3 beta gene expression ([3]; 96 hrs): + (detectable between 35 and 40 cycles by RT-PCR)
- Insulin gene expression ([3]; 96 hrs): + (detectable between 35 and 40 cycles by RT-PCR)
- Pdx-1 gene expression ([3]; 96 hrs): nd (not detectable at >40 cycles by RT-PCR)
- sox17 gene expression ([3]; 96 hrs): +++ (detectable at less than 35 cycles by RT-PCR with SE less than 0.9)
- Gata1 gene expression ([3]; 120 hrs): + (detectable between 35 and 40 cycles by RT-PCR)
- HNF-3 beta gene expression ([3]; 120 hrs): +++ (detectable at less than 35 cycles by RT-PCR with SE less than 0.9)
- Insulin gene expression ([3]; 120 hrs): nd (not detectable at >40 cycles by RT-PCR)
- Pdx-1 gene expression ([3]; 120 hrs): +++ (detectable at less than 35 cycles by RT-PCR with SE less than 0.9)
- sox17 gene expression ([3]; 120 hrs): +++ (detectable at less than 35 cycles by RT-PCR with SE less than 0.9)
- Gata1 gene expression ([3]; 144 hrs): nd (not detectable at >40 cycles by RT-PCR)
- HNF-3 beta gene expression ([3]; 144 hrs): +++ (detectable at less than 35 cycles by RT-PCR with SE less than 0.9)
- Insulin gene expression ([3]; 144 hrs): nd (not detectable at >40 cycles by RT-PCR)
- Pdx-1 gene expression ([3]; 144 hrs): nd (not detectable at >40 cycles by RT-PCR)
- sox17 gene expression ([3]; 144 hrs): +++ (detectable at less than 35 cycles by RT-PCR with SE less than 0.9)
- Pdx-1 RT-PCR detection cycle ([3]; 1.25 μM, after the initial treatment): 33 cycles
- Insulin RT-PCR detection cycle ([3]; 1.25 μM, after trichostatin A was washed away): 36 cycles
- HNF-3 beta RT-PCR detection cycle [3, 6]: 32 cycles
- Pdx-1 RT-PCR detection cycle [3, 6]: 32 cycles
- HNF-3 beta RT-PCR detection cycle ([3]; 1.25 μM, initial treatment): 35 cycles
- HNF-3 beta RT-PCR detection cycle ([3]; 1.25 μM, prior to the second addition): 38 cycles
